Values of other authors as cited in US8389778B2, “Preparation of mannitol modification III” (Aptuit (West Lafayette), LLC, priority 2007, dated 2013).

**Q.** Which “stability of the hemihydrate” value (ambient conditions) does the source give for `OC[C@@H](O)[C@@H](O)[C@H](O)[C@H](O)CO` [hemihydrate, Mannitol hemihydrate] here?
**A.** unstable under ambient conditions

**Q.** With `OC[C@@H](O)[C@@H](O)[C@H](O)[C@H](O)CO` [modification III, mannitol] as the molecule, how does the “phase transformation of modification III into modification I on storage” value (kept dry, period of 5 years) read?
**A.** did not transform into modification I over a period of 5 years
